This is an account of results in patent publication US20080176263A1, “Materials and Methods for Efficient and Accurate Detection of Analytes” (University of Florida Research Foundation, Inc., priority 2006, published 2008).

The target of one assay is T1, MMP-1 (Homo sapiens, UniProt P03956).
T1 sequence (P03956 100-469): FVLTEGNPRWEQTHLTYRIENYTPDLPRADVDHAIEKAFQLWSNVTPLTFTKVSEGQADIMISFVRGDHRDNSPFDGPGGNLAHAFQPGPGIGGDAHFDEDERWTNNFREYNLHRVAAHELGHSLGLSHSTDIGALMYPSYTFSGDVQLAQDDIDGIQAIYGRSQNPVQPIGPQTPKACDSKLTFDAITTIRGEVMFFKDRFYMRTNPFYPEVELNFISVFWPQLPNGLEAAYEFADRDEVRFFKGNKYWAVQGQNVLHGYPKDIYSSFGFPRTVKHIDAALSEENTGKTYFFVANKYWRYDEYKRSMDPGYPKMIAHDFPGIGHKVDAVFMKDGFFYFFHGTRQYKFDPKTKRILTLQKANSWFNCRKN
To be noted: at 37° C., pH 7.64; cited from earlier work.

A further assay concerns the target T2, MMP-2 (Homo sapiens, UniProt P08253).
T2 sequence (P08253 110-660): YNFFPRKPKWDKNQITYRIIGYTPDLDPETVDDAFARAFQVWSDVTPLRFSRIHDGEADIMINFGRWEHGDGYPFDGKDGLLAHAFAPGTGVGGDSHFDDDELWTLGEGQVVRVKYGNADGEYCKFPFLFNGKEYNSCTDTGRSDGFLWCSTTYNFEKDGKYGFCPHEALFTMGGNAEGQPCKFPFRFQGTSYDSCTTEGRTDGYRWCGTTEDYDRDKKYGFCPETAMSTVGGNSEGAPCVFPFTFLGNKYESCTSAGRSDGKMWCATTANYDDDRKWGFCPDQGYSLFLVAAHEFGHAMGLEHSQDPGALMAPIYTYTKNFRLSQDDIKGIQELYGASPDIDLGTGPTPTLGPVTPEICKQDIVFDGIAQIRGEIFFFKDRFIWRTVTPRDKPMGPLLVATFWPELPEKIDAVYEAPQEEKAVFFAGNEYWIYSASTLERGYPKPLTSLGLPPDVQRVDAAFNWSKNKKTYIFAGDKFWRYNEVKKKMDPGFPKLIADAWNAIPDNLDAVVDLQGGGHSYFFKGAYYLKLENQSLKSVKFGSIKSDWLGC
To be noted: at 37° C., pH 7.64; cited from earlier work.

The target of another assay is MMP-3 (Homo sapiens, UniProt P08254). Conditions: at 37° C., pH 7.64; cited from earlier work.
Chain of MMP-3 (P08254 100-477, species assumed): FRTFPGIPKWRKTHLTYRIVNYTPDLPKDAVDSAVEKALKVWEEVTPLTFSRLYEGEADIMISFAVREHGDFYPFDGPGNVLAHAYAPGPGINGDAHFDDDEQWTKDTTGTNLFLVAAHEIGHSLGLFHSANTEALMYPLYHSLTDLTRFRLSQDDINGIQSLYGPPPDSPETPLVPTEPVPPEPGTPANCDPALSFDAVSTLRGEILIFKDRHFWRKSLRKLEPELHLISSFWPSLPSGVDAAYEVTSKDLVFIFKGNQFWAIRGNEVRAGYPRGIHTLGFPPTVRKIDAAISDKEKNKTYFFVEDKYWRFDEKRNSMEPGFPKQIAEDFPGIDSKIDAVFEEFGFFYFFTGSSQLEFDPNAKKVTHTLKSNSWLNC
Assay [1] has as its system MMP-9. Conditions: at 37° C., pH 7.64; cited from earlier work.
Target sequence in this assay (P14780 94-707, species assumed): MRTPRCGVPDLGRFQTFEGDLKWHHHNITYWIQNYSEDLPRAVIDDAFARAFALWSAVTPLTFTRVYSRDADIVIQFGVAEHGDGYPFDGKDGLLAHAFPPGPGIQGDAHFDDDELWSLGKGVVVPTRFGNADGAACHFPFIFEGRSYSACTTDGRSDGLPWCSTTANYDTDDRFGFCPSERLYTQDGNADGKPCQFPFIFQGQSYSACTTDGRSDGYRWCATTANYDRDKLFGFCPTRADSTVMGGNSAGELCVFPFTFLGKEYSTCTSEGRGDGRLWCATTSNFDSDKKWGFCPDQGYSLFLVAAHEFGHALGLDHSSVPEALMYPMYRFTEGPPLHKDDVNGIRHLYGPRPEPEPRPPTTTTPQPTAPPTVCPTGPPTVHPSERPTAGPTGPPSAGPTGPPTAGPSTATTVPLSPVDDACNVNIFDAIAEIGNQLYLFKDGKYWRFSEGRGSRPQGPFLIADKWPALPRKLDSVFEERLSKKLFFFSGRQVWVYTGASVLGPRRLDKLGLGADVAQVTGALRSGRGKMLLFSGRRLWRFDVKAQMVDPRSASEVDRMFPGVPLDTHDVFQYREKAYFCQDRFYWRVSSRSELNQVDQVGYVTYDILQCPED
The subject of a further assay is pronase. To be noted: 23° C., 30 min, 100 tM substrate.
Assay [2] concerns substrate TNO211. Briefly: Study #3: protease detection sensitivity, visual detection under UV. The assay is classed as biochemical. To be noted: within 10 minutes; from 17% and 28% of pronase activity. As to the method:
To investigate the visual detection limits of pronase, standard curves (1000-0 ng) of the protease were reacted in 50, 100, and 200 uM substrate diluted in the assay buffer. Digital photographs were taken under white light and UV. These observations were compared to those obtained quantitatively using the fluorescence plate reader. The observed detection limits for pronase were used to calculate theoretical detection limits for MMP-2 and MMP-9 (17% and 28% as active as pronase, respectively).

In assay [3] the test system is substrate TNO211. Briefly: Study #1: time-to-detection of protease activity, cleavage of substrate TNO211 by fluorescence. It counts as biochemical. Conditions: protease concentrations ≦100 ng/ml. As to the method: 1. Prepare a suitable standard curve diluted in enzyme buffer. Typically, a maximum of 50 ng/ml final protease concentration in the assay is used. Keep on ice until use.
2. Prepare the substrate solution by diluting the Stock Reconstituted Substrate (in DMSO) to 5.56 uM in the desired Assay Buffer (EDTA-free or EDTA-containing) to produce 90 ul of total EDTA-free or EDTA-containing Assay Buffer per well.
3. Pipette 90 ul substrate solution into each well to be assayed.
4. Take an initial fluorescence reading. To minimize interference due to the fluorescence of endogenous proteins in the samples, we routinely use excitation/emission wavelengths of 355/535 nm, respectively.
5. Pipette 10 ul standards, samples, or Enzyme Buffer (BLANK) into each well of the 96-well fluorescence assay plate.
6. Measure the change in fluorescence continuously until the standard range of interest is sufficiently resolved. Protect from light at RT or 37° C. between measurements.
7. Determine the best-fit curve relating the Change in Fluorescence (AF) vs.
[Protease]. […]
One hundred, 10, 1, and 0.1 ng of pronase, MMP-2, MMP-9, and clostridial collagenase were assayed in a total reaction volume of 100 ul for cleavage of substrate TNO211 as detected by fluorescence. The reactions were monitored for approximately one hour after the addition of the proteases.

Assay [4] has as its system MMP-9. Briefly: 5-FAM FRET peptide assay with pure recombinant MMP-9. The assay is classed as biochemical. To be noted: pure MMP-9 activity near the threshold of Ladwig et al. As to the method: Peptide: Two vials of Anaspec, Inc.'s FRET peptide XV (1646.1 g/mol; 100 pg each; Sequence: QXL™520-y-Abu-Pro-Gln-Gly-Leu-Dab(5-FAM)-Ala-Lys-NH (SEQ ID NO:3)) were reconstituted with 60.7 pL of dimethyl sulfoxide (DMSO) to create a stock solution with a concentration of 1.0 mM. A 2× (50 pM) working solution was generated by diluting the 1.0 mM stock in MMP Assay Buffer 20-fold. Each reaction will be 20 pL at final volume requiring at least 0.5 pL of 1.0 mM stock, 9.5 pL of MMP assay buffer and 10 pL of sample per reaction.
Matrix Metalloprotease 9 (aka Gelatinase B): Recombinant active pure MMP-9 from Calbiochem (Cat# PF024; 83 kDa form) in a concentration of 100 ng/mL was used to create 40 pL working solutions at 2× concentration (4× reactions per concentration).
The protease was ˜30 pL of 10 pg/mL MMP-9 (86 kDa form). The substrate was ˜60 μL of 50 μCM 5-FAM/QXL520 FRET Peptide (Fluorescein based TNO211). So the final protease concentration is ˜3.33 μg/mL with ˜33.3 μM.
After the plate-based validation, the leftover substrate and protease were used to test the system in a microcentrifuge tube. A signal visible with a handheld cyan led flashlight was present within 10 minutes. The signal was visible under normal lighting conditions, but the signal is enhanced with the lights out or with the tube shielded.
Target sequence in this assay (P14780 107-707 limits assumed): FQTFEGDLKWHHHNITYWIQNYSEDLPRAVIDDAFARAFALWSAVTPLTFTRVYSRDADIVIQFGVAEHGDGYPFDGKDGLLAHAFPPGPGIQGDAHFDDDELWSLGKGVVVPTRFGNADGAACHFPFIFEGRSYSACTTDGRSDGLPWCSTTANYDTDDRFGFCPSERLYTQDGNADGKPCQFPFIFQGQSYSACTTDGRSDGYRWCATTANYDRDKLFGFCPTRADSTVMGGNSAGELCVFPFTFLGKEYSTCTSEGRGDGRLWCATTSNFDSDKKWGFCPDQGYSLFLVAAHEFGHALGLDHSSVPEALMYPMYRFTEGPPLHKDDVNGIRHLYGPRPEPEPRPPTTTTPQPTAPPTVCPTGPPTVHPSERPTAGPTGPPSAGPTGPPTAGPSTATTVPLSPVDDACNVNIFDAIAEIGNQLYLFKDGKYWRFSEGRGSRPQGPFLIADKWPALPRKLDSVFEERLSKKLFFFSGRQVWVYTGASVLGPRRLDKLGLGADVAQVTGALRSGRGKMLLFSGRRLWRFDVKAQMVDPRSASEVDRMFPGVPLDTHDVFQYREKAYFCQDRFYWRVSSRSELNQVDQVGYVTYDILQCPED

“And” between values parts separate entries of the source, which are not always exact repeats. Identical values can stand only once. Numbered stars: 1 amine (or outer) side, 2 acyl side, 3 side chain; on linkers, the order of the positions; unused ones are H or OH. Square brackets hold non-standard residues; d marks the D form. * marks the point of attachment. Dab(5-FAM) = O=C(NCC[C@H](N[*:1])C(=O)[*:2])c1ccc2c(c1)C(=O)OC21c2ccc(O)cc2Oc2cc(O)ccc21; EDANS = O=S(=O)(O)c1cccc2c(NCCN*)cccc12; DABCYL = DABCYL quencher; GABA = NCCCC(=O)O Where only a bound is given, the exact number is not on record here.

Method for pronase: The biotinylated fluoreceinated peptide #15 was reconstituted to a concentration of 10 mM in DMSO to serve as a stock solution. […] The 10 mM stock was further diluted to a 1 mM working stock. The final in-reaction concentration of substrate was 100 tM, which was chosen based on visual/fluorescent appearance of the diluted sample.
Three reactions were run, a negative control which contained no protease, a tube which contained 10 tg/mL, and a tube that contained 100 tg/mL.
All three tubes were shaken at room temperature (23° C.) for 30 min, then 30 μL of 500 mM EDTA was added to quench the metalloproteases. Then the reactions were immediately added to 10 kDa cut-off centrifuge filters to physically remove all proteases. This step required two separate filters per sample as the protein content was high enough to “clog” the filter after about half of the volume as filtered. The unfiltered volume was removed from the “clogged” filter and placed into a fresh filter.
Six handee spin columns were prepared in advance by loading 200 tL of the streptavidin agarose suspension (approximately 1:1 bead:buffer) and then centrifuging to remove the buffer. Upon completion of the protease removal step, the filtered volume was placed in a handee spin column loaded with ˜100 tL of a high-capacity streptavidin agarose and the volumes were well mixed by pipetting action. […]

For the substance “DABCYL-GABA-Pro-Gln-Gly-Leu-Glu(EDANS)-Ala-Lys-NH2 ({DABCYL-GABA}-PQGLE(EDANS)AK-NH2) [TNO211]”, the kcatKm in the assay with MMP-1 is 21,000 M^−1s^−1; with MMP-2 it was 619,000 M^−1s^−1; with MMP-3, 40,000 M^−1s^−1; in the assay with MMP-9 [1] it was 206,000 M^−1s^−1. In the case of “Biotin-aAbu-Pro-Gln-Gly-Leu-Lys(5FAM)-Ala-Lys-NH2 [Peptide #15]”, the cleavage kinetics entry with pronase is listed as “favorable kinetics”. Take “MMP-9: Matrix Metalloprotease 9, protease assayed for cleavage of substrate TNO211”: the “theoretical detection limit calculated from pronase limit” value with substrate TNO211 [2] was approximately 450 ng. For the same substance, in the assay with substrate TNO211 [3], the “activity as % of pronase's observed activity” value was 28±3% and 28%.

Turning to collagenase, the “activity as % of pronase's observed activity” value in the assay with substrate TNO211 [3] is on record as 2±1%. As to “QXL™520-y-Abu-Pro-Gln-Gly-Leu-Dab(5-FAM)-Ala-Lys-NH ({QXL520-GABA}-PQGL[Dab(5-FAM)]AK-NH2) [Anaspec XV]”, the “time to generate a signal” value in the assay on MMP-9 [4] was not above 10 min.
